Test results reported in patent publication US11524966B1 (Valo Early Discovery, Inc., priority 2017, dated 2022).

These compounds were tested against T1, USP28 (His-tagged USP28-FL-mammalian) (Homo sapiens, UniProt Q96RU2) (assay: Ubiquitin-Rhodamine 110 Assay for USP28 Activity, Example A-1(a)). Settings: Ubiquitin-Rhodamine 110 assay, Example A-1(a); read-out: USP28 A-1(a) IC50 range.
T1 construct: Expression of USP28 (1-1077)-TEV-6*His (pTT5 vector); made in house; host or cells: Expi293f cells (pTT5 vector)
T1 sequence (Q96RU2 1-1077): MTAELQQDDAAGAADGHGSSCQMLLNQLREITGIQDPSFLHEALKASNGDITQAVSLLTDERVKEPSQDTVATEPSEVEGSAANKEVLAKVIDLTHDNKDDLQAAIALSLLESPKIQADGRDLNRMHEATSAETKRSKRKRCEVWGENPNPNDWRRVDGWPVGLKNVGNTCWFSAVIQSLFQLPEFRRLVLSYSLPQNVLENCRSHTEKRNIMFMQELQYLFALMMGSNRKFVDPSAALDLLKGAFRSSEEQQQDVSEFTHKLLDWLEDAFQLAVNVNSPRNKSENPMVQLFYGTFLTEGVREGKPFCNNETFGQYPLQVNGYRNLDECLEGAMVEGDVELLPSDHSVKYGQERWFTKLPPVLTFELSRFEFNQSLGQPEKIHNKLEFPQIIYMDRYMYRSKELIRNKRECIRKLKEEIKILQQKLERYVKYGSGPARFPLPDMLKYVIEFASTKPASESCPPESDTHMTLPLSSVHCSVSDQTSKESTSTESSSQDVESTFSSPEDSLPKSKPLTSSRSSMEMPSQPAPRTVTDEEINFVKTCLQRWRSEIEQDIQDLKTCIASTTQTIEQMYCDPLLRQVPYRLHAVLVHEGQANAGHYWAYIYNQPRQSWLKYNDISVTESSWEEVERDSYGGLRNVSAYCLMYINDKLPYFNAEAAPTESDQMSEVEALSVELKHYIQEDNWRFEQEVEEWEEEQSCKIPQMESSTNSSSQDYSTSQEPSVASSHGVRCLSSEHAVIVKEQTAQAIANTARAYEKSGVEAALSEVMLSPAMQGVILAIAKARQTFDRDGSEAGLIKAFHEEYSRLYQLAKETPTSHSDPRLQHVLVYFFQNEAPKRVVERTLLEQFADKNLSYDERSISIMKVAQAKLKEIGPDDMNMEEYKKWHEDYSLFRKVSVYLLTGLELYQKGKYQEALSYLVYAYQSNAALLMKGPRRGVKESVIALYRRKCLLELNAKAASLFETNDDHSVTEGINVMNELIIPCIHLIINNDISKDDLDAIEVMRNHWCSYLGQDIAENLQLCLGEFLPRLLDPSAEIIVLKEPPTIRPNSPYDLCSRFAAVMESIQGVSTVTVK
Assay type: biochemical
In short: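 Full-length His-tagged USP28 (1-1077, Expi293F-expressed; […]) was preincubated 30 min with compound (25 μM–1.3 nM, 10-point 3-fold) in 20 mM Tris-HCl pH 8.0, 3 mM BME, 0.03% BGG, 0.01% Triton X-100. Ub-Rh110 (25 nM) was then added for 45 min at room temperature, stopped with citric acid, and read by fluorescence (485/535 nm).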
Compound `Cc1ccc2c(N)c(C(=O)N[C@H]3CCc4nc(N5C[C@H](N)[C@H](OC(C)C)C5)ccc4C3)sc2n1` [Example 321, 3-amino-N-[(6S)-2-[(3S,4R)-3-amino-4-(propan-2-yloxy)pyrrolidin-1-yl]-5,6,7,8-tetrahydroquinolin-6-yl]-6-methylthieno[2,3-b]pyridine-2-carboxamide] has an IC50 of 0.2 to 2 µM. Work on `N#Cc1c(N2CC3CCC(C2)N3)cc2c(c1F)C[C@@H](NC(=O)c1cnc3c(c1)[C@@H]1C[C@@H]1CN3)CO2` [Example 264, (6aS,7aR)-N-[(3R)-6-cyano-7-{3,8-diazabicyclo[3.2.1]octan-3-yl}-5-fluoro-3,4-dihydro-2H-1-benzopyran-3-yl]-5H,6H,6aH,7H,7aH-cyclopropa[c]1,8-naphthyridine-2-carboxamide] yielded an IC50 of 0.001 to 0.05 µM. For `Cc1ccc2c(N)c(C(=O)N[C@H]3COc4cc(N5CC6(C5)OCC[C@@H]6N)ccc4C3)sc2n1` [Example 338, 3-amino-N-[(3R)-7-[(8S)-8-amino-5-oxa-2-azaspiro[3.4]octan-2-yl]-3,4-dihydro-2H-1-benzopyran-3-yl]-6-methylthieno[2,3-b]pyridine-2-carboxamide], the IC50 was 0.05 to 0.2 µM. `COC[C@@H]1CN(c2ccc3c(n2)CC[C@H](NC(=O)c2sc4nc(C)ccc4c2N)C3)C[C@H]1N` [Example 328, 3-amino-N-[(6S)-2-[(3S,4R)-3-amino-4-(methoxymethyl)pyrrolidin-1-yl]-5,6,7,8-tetrahydroquinolin-6-yl]-6-methylthieno[2,3-b]pyridine-2-carboxamide] gave an IC50 of 0.2 to 2 µM. Compound `CO[C@@H]1[C@@H](N)CN(c2ccc3c(c2)OC[C@H](NC(=O)c2sc4nc(C)ccc4c2N)C3)[C@H]1C` [Example 283, 3-amino-N-[(3R)-7-[(2S,3R,4S)-4-amino-3-methoxy-2-methylpyrrolidin-1-yl]-3,4-dihydro-2H-1-benzopyran-3-yl]-6-methylthieno[2,3-b]pyridine-2-carboxamide] has an IC50 of 0.001 to 0.05 µM. `COC[C@H]1C[C@H](N)CN1c1ccc2c(c1)OC[C@H](NC(=O)c1sc3nc(C)ccc3c1N)C2` [Example 261, 3-amino-N-[(3R)-7-[(2R,4S)-4-amino-2-(methoxymethyl)pyrrolidin-1-yl]-3,4-dihydro-2H-1-benzopyran-3-yl]-6-methylthieno[2,3-b]pyridine-2-carboxamide] gave an IC50 of 0.001 to 0.05 µM. Compound `COC[C@H]1CN(c2ccc3c(n2)CC[C@H](NC(=O)c2sc4nc(C)cc(C)c4c2N)C3)C[C@H]1N` [Example 297, 3-amino-N-[(6S)-2-[(3S,4S)-3-amino-4-(methoxymethyl)pyrrolidin-1-yl]-5,6,7,8-tetrahydroquinolin-6-yl]-4,6-dimethylthieno[2,3-b]pyridine-2-carboxamide] has an IC50 of 0.001 to 0.05 µM. Compound `Cc1ccc2c(N)c(C(=O)N[C@H]3CCc4nc(N5C[C@H](OC(C)C)[C@@H](N)C5)ccc4C3)sc2n1` [Example 320] has an IC50 of 0.05 to 0.2 µM. `CCO[C@@H]1CN(c2ccc3c(c2)CC[C@H](NC(=O)c2sc4nc(C)ccc4c2N)C3)C[C@@H]1N` [Example 267, 3-amino-N-[(2S)-6-[(3S,4R)-3-amino-4-ethoxypyrrolidin-1-yl]-1,2,3,4-tetrahydronaphthalen-2-yl]-6-methylthieno[2,3-b]pyridine-2-carboxamide] gave an IC50 of 0.05 to 0.2 µM. Work on `Cc1ccc2c(N)c(C(=O)N[C@H]3COc4cc(N5C[C@@H](N)[C@H](C(F)F)C5)ccc4C3)sc2n1` [Example 295, 3-amino-N-[(3R)-7-[(3S,4R)-3-amino-4-(difluoromethyl)pyrrolidin-1-yl]-3,4-dihydro-2H-1-benzopyran-3-yl]-6-methylthieno[2,3-b]pyridine-2-carboxamide] yielded an IC50 of 0.001 to 0.05 µM. `CCO[C@H]1CN(c2ccc3c(c2)OC[C@H](NC(=O)c2sc4nc(C)cc(C)c4c2N)C3)C[C@H]1N` [Example 324, 3-amino-N-[(3R)-7-[(3R,4S)-3-amino-4-ethoxypyrrolidin-1-yl]-3,4-dihydro-2H-1-benzopyran-3-yl]-4,6-dimethylthieno[2,3-b]pyridine-2-carboxamide] gave an IC50 of 0.05 to 0.2 µM. For `COC[C@@H]1CN(c2nc3c(cc2F)C[C@@H](NC(=O)c2sc4nc(C)ccc4c2N)CC3)C[C@@H]1N` [Example 300, 3-amino-N-[(6S)-2-[(3R,4R)-3-amino-4-(methoxymethyl)pyrrolidin-1-yl]-3-fluoro-5,6,7,8-tetrahydroquinolin-6-yl]-6-methylthieno[2,3-b]pyridine-2-carboxamide], the IC50 was 0.2 to 2 µM. `N#Cc1c(N2CC3CCC(C2)N3)cc2c(c1F)C[C@@H](NC(=O)c1cnc3c(c1)[C@H]1C[C@H]1CN3)CO2` [Example 265, (6aR,7aS)-N-[(3R)-6-cyano-7-{3,8-diazabicyclo[3.2.1]octan-3-yl}-5-fluoro-3,4-dihydro-2H-1-benzopyran-3-yl]-5H,6H,6aH,7H,7aH-cyclopropa[c]1,8-naphthyridine-2-carboxamide] showed an IC50 of 0.05 to 0.2 µM. For `Cc1ccc2c(N)c(C(=O)N[C@H]3CCc4nc(N5C[C@H](OC6CCC6)[C@@H](N)C5)ccc4C3)sc2n1` [Example 285, 3-amino-N-[(6S)-2-[(3S,4S)-3-amino-4-cyclobutoxypyrrolidin-1-yl]-5,6,7,8-tetrahydroquinolin-6-yl]-6-methylthieno[2,3-b]pyridine-2-carboxamide], the IC50 was 0.05 to 0.2 µM. `CO[C@H]1CN(c2ccc3c(n2)OC[C@H](NC(=O)c2sc4nc(C)cc(C)c4c2N)C3)C[C@@H]1N` [Example 286, 3-amino-N-[(3R)-7-[(3S,4S)-3-amino-4-methoxypyrrolidin-1-yl]-2H,3H,4H-pyrano[2,3-b]pyridin-3-yl]-4,6-dimethylthieno[2,3-b]pyridine-2-carboxamide] showed an IC50 of 0.05 to 0.2 µM. For `CO[C@H]1CCN(c2ccc3c(n2)CC[C@H](NC(=O)c2sc4nc(C)ccc4c2N)C3)C[C@@H]1N` (single isomer, unassigned) [Example 315], the IC50 was 0.05 to 0.2 µM. In the case of `CO[C@@H]1CN(c2ccc3c(n2)CC[C@H](NC(=O)c2sc4nc(C)ccc4c2N)C3)C[C@@H]1N` [Example 269, 3-amino-N-[(6S)-2-[(3S,4R)-3-amino-4-methoxypyrrolidin-1-yl]-5,6,7,8-tetrahydroquinolin-6-yl]-6-methylthieno[2,3-b]pyridine-2-carboxamide], the IC50 is reported as 0.05 to 0.2 µM. Work on `CO[C@@]1(C)CN(c2ccc3c(n2)CC[C@H](NC(=O)c2sc4nc(C)cnc4c2N)C3)C[C@@H]1N` [Example 279, 7-amino-N-[(6S)-2-[(3S,4S)-4-amino-3-methoxy-3-methylpyrrolidin-1-yl]-5,6,7,8-tetrahydroquinolin-6-yl]-3-methylthieno[2,3-b]pyrazine-6-carboxamide] yielded an IC50 of 0.2 to 2 µM. `COC[C@H]1CN(c2nc3c(cc2F)C[C@@H](NC(=O)c2sc4nc(C)ccc4c2N)CC3)C[C@H]1N` [Example 301, 3-amino-N-[(6S)-2-[(3S,4S)-3-amino-4-(methoxymethyl)pyrrolidin-1-yl]-3-fluoro-5,6,7,8-tetrahydroquinolin-6-yl]-6-methylthieno[2,3-b]pyridine-2-carboxamide] was tested, and the IC50 was greater than 2 µM. `CN[C@H]1CN(c2ccc3c(n2)CC[C@H](NC(=O)c2sc4nc(C)cc(C)c4c2N)C3)C[C@@H]1OC` [Example 312, 3-amino-N-[(6S)-2-[(3S,4S)-3-methoxy-4-(methylamino)pyrrolidin-1-yl]-5,6,7,8-tetrahydroquinolin-6-yl]-4,6-dimethylthieno[2,3-b]pyridine-2-carboxamide] showed an IC50 of 0.05 to 0.2 µM. With `CN[C@H]1CN(c2ccc3c(n2)CC[C@H](NC(=O)c2sc4nc(C)ccc4c2N)C3)C[C@@H]1OC` [Example 311, 3-amino-N-[(6S)-2-[(3S,4S)-3-methoxy-4-(methylamino)pyrrolidin-1-yl]-5,6,7,8-tetrahydroquinolin-6-yl]-6-methylthieno[2,3-b]pyridine-2-carboxamide] the IC50 was 0.05 to 0.2 µM. Work on `Cc1ccc2c(N)c(C(=O)N[C@H]3CCc4nc(N5C[C@@H](N)[C@@H](OC(C)C)C5)ccc4C3)sc2n1` [Example 322, 3-amino-N-[(6S)-2-[(3R,4S)-3-amino-4-(propan-2-yloxy)pyrrolidin-1-yl]-5,6,7,8-tetrahydroquinolin-6-yl]-6-methylthieno[2,3-b]pyridine-2-carboxamide] yielded an IC50 of 0.2 to 2 µM. Work on `Cc1ccc2c(N)c(C(=O)N[C@H]3COc4cc(N5C[C@@H](N)[C@@H](F)C5)ccc4C3)sc2n1` (single isomer, unassigned) [Example 3-5] yielded an IC50 of 0.001 to 0.05 µM.
